The values that follow come from patent publication US6117841A, “Substituted peptidylamine calcium channel blockers” (Warner-Lambert Company, priority 1999, dated 2000).

One assay has as its target T1, N-type Ca^2+ Channel (Homo sapiens, UniProt Q00975).
T1 construct: host or cells: IMR-32 cells differentiated with dibutyryl cAMP and bromodeoxyuridine
Kind of assay: Measurement of N-type Ca2+ channel blocking potencies in IMR-32 cells using the fluorescent Ca2+ indicator Indo-1. Type of assay: cell-based. Conditions: for IC50: IMR-32 cells. In a few lines: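 IMR-32 cells were differentiated 7–13 days (1 mM dibutyryl cAMP, 2.5 µM BrdU) and Indo-1-loaded. They were preincubated 10 min at 30 °C with compound and 5 µM nitrendipine in HEPES/Tris pH 7.4 HBSS with 0.5% BSA, then KCl/CaCl2-depolarized. The peak-minus-basal 400/490 nm emission ratio gave IC50 by four-parameter logistic fit.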

A further assay concerns DBA/2 mice. Kind of assay: In vivo anticonvulsant activity, sound-induced tonic seizures in DBA/2 mice. The settings on record: tested 15 or 45 minutes after injection; for DBA/2 mice % Protection (10 mg/kg): 10 mg/kg intravenous; for DBA/2 mice % Protection dose @ 30 mg/kg: 30 mg/kg intravenous. Here is the method: A compound of the present invention was dissolved in water using 10% (weight/volume) Emulphor (GAF Corp., Wayne, N.J.) surfactant. Substances were administered by intravenous injection into the retro-orbital venous sinus. All testing was performed 15 minutes or 45 minutes after drug injection. All the male mice, 3-4 weeks old were obtained from Jackson Laboratories Bar Harbour, Me. Immediately before anticonvulsant testing, mice were placed upon a wire mesh, 4 inches square suspended from a steel rod. The square was slowly inverted through 180 degrees and mice observed for 30 seconds. Any mouse falling from the wire mesh was scored as ataxia.
Mice were placed into an enclosed acrylic plastic chamber (21 cm height, approximately 30 cm diameter) with a high-frequency speaker (4 cm diameter) in the center of the top lid. An audio signal generator (Protek model B-810) was used to produce a continuous sinusoidal tone that was swept linearly in frequency between 8 kHz and 16 kHz once each 10 msec. The average sound pressure level (SPL) during stimulation was approximately 100 dB at the floor of the chamber. Mice were placed within the chamber and allowed to acclimatize for 1 minute. DBA/2 mice in the vehicle-treated group responded to the sound stimulus (applied until tonic extension occurred, or for a maximum of 60 sec) with a characteristic seizure sequence consisting of wild running followed by clonic seizures, and later by tonic extension, and finally by respiratory arrest and death in 80% or more of the mice. In vehicle-treated mice, the entire sequence of seizures to respiratory arrest lasts approximately 15-20 seconds.
The incidence of all the seizure phases in the drug-treated and vehicle-treated mice was recorded, and the occurrence of tonic seizures were used for calculatine anticonvulsant ED50 values by probit analysis. Mice were used only once for testing at each time and dose point.

Where [1] appears, read: K+ depolarization, 5 μM nitrendipine to block L-type channels, read-out: IMR 32 IC50.
Where [2] appears, read: 5 μM nitrendipine, Examples 116-140, read-out: IMR 32% of Blockade @.

Read-outs that look alike come from different tables or passages of the source.

T1 sequence (Q00975 whole entry): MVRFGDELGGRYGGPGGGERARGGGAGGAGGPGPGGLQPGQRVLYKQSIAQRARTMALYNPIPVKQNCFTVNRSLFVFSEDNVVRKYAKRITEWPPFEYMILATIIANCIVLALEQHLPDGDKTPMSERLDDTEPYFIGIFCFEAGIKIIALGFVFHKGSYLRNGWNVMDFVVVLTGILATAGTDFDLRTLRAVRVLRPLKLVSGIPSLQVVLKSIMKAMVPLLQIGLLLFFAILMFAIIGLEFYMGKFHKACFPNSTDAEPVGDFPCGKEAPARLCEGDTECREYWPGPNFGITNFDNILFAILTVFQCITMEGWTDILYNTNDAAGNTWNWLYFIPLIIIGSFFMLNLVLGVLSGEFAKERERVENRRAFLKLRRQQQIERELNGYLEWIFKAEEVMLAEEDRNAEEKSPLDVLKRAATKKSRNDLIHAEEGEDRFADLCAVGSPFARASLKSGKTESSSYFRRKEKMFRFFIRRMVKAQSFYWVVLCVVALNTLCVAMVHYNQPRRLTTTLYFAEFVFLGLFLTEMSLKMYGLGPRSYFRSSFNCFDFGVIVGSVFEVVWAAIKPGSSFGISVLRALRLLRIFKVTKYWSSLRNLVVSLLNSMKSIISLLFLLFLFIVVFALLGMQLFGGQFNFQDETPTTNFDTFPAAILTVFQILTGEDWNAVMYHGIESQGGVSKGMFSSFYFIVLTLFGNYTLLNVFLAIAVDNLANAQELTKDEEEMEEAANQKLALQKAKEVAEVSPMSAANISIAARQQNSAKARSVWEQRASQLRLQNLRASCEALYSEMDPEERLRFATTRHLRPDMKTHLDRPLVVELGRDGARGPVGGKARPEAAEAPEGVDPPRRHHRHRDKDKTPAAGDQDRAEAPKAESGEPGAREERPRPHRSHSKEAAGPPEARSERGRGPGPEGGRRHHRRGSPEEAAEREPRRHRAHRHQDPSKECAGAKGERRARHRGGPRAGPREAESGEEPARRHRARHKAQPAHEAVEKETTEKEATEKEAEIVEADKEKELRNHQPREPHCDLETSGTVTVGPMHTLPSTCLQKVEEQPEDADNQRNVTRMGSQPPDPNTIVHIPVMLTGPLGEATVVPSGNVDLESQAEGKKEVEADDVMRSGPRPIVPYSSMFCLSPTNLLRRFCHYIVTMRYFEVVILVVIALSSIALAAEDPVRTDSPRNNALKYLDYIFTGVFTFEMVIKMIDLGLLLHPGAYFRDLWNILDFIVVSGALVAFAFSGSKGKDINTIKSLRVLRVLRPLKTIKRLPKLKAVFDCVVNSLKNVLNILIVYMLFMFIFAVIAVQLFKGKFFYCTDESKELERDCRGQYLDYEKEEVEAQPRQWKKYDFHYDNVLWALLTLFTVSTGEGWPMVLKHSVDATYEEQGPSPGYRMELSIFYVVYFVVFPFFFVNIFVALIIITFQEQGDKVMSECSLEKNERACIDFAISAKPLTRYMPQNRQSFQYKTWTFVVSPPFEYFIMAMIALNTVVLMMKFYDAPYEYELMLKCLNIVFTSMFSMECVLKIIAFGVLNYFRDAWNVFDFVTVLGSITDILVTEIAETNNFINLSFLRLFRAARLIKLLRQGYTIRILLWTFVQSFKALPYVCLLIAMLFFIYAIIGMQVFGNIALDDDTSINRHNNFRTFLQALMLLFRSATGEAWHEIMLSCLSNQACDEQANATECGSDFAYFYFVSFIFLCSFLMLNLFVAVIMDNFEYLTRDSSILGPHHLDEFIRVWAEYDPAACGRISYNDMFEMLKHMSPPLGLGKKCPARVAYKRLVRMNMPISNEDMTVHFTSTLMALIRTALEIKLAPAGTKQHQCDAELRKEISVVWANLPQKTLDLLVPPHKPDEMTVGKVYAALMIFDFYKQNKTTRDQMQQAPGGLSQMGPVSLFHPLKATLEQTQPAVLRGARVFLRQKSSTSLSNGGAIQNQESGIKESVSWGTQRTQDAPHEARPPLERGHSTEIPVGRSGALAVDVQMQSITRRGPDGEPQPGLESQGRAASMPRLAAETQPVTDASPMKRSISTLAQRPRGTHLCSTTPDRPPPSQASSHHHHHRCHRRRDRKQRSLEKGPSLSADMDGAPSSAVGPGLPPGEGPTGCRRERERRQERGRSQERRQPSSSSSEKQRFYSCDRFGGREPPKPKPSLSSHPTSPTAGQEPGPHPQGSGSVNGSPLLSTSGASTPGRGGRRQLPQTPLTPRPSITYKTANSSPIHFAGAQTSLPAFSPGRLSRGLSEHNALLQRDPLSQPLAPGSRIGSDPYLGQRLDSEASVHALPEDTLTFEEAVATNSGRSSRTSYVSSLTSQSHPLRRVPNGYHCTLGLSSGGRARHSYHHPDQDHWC
T1 sequence (P54284 whole entry partner): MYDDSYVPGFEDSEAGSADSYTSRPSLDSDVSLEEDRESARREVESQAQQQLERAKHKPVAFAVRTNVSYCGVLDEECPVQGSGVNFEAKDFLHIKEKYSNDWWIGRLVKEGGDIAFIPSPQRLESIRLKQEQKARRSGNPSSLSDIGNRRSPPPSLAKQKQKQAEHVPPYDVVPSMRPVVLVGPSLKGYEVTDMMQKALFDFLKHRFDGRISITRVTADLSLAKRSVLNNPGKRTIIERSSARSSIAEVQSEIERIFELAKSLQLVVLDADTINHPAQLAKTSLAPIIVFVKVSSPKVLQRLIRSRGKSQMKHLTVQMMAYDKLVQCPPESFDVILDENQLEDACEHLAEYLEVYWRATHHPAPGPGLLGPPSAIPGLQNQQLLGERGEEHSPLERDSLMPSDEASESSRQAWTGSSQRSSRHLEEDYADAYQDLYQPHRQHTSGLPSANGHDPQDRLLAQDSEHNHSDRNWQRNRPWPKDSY
T1 sequence (P54289 25-946 partner limits assumed): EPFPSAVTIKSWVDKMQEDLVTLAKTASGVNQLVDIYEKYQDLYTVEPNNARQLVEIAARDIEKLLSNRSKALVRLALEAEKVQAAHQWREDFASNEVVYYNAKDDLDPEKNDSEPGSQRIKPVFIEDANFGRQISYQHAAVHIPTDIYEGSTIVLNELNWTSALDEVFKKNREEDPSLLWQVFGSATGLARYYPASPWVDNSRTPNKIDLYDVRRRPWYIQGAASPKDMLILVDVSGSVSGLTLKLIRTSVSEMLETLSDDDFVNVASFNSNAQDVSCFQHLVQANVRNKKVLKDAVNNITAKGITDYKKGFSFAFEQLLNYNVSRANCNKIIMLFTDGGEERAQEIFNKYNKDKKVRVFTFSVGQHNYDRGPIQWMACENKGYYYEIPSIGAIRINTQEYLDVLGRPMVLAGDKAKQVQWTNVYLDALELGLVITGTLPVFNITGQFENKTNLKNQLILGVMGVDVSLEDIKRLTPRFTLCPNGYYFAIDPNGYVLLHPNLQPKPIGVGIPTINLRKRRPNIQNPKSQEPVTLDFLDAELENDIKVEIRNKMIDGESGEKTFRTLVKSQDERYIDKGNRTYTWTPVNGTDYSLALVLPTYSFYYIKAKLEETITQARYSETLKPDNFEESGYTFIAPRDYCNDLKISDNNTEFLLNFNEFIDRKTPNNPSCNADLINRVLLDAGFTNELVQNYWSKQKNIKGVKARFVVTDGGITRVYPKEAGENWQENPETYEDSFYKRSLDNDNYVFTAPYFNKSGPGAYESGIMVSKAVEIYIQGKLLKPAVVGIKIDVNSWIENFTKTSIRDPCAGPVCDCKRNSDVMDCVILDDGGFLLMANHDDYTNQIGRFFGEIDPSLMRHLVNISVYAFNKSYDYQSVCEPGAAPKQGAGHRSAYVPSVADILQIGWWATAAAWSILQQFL
T1 sequence (P54289 947-1103 partner limits assumed): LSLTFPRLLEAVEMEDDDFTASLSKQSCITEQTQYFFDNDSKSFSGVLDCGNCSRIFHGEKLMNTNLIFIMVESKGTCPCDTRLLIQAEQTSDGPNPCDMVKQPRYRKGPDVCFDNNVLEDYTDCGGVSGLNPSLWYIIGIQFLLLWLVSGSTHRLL

For `CCC(C)N(C)C(CC(C)C)C(=O)NC(Cc1ccc(OCc2ccccc2)cc1)C(=O)NC(C)(C)C` (racemic) [Example 103, [S-[R*,R*,(RS)]]-2-(sec-Butyl-methyl-amino)-4-methyl-pentanoic acid [2-(4-benzyloxy-phenyl)-1-tert-butylcarbamoyl-ethyl]-amide], the IC50 on N-type Ca^2+ Channel (setting [1]) was determined as 1500 nM. Further, the “DBA/2 mice % Protection (10 mg/kg)” value with DBA/2 mice came out at 100%. Consider `CC(C)CCN(C)[C@@H](CC(C)C)C(=O)N[C@@H](Cc1ccc(OCc2ccccc2)cc1)C(=O)NC(C)(C)C` (relative stereo) [Example 7, [S-(R*,R*)]-4-Methyl-2-[methyl-(3-methyl-butyl)-amino]-pentanoic acid [2-(4-benzyloxy-phenyl)-1-tert-butylcarbamoyl-ethyl]-amide], for which, on N-type Ca^2+ Channel (setting [1]), the IC50 amounted to 320 nM. In the assay on DBA/2 mice, the “DBA/2 mice % Protection dose @ 30 mg/kg” value is 100%.

Take `CC(C)C[C@@H](C(=O)N[C@@H](Cc1ccc(OCc2ccccc2)cc1)C(=O)NC(C)(C)C)N(C)CC1CCCCC1` (relative stereo) [Example 25, [S-(R*,R*)]-2-(Cyclohexylmethyl-methyl-amino)-4-methyl-pentanoic acid [2-(4-benzyloxy-phenyl)-1-tert-butylcarbamoyl-ethyl]-amide]: on N-type Ca^2+ Channel (setting [1]), the IC50 stood at 670 nM. For the same compound, the “DBA/2 mice % Protection dose @ 30 mg/kg” value in the assay with DBA/2 mice is recorded as 100%.

Turning to `CC(C)CCN(C)[C@@H](CC(C)C)C(=O)N[C@H](Cc1ccc(OCc2ccccc2)cc1)C(=O)NC(C)(C)C` (relative stereo) [Example 84, [S-(R*,S*)]-4-Methyl-2-[methyl-(3-methyl-butyl)-amino]-pentanoic acid [2-(4-benzyloxy-phenyl)-1-tert-butylcarbamoyl-ethyl]-amide], the IC50 at N-type Ca^2+ Channel (setting [1]) amounted to 370 nM. Also, the “DBA/2 mice % Protection (10 mg/kg)” value in the assay with DBA/2 mice amounted to 100%. Consider `CC(C)C[C@@H](C(=O)N[C@@H](Cc1ccc(OCc2ccccc2)cc1)C(=O)NC(C)(C)C)N(C)Cc1ccco1` (relative stereo) [Example 90, [S-(R*,R*)]-2-(Furan-2-ylmethyl-methyl-amino)-4-methyl-pentanoic acid [2-(4-benzyloxy-phenyl)-1-tert-butylcarbamoyl-ethyl]-amide], for which the IC50 at N-type Ca^2+ Channel (setting [1]) came out at 900 nM. In addition, the “DBA/2 mice % Protection dose @ 30 mg/kg” value in the assay with DBA/2 mice came out at 60%.

For the compound `CC(C)C[C@H](NC1CCCCC1)C(=O)N[C@@H](Cc1ccc(OCc2ccccc2)cc1)C(=O)OC(C)(C)C` (relative stereo) [Example 93, [S-(R*,R*)]-3-(4-Benzyloxy-phenyl)-2-(2-cyclohexylamino-4-methyl-pentanoylamino)-propionic acid tert-butyl ester], the IC50 on N-type Ca^2+ Channel (setting [1]) is 200 nM. Besides, the “DBA/2 mice % Protection dose @ 30 mg/kg” value in the assay on DBA/2 mice was determined as 80%. As for `CC(C)C[C@@H](C(=O)N[C@@H](Cc1ccc(OCc2ccccc2)cc1)C(=O)NC(C)(C)C)N(C)CCC(C)O` (relative stereo) [Example 97, [S-(R*,R*)]-2-[(3-Hydroxy-butyl)-methyl-amino]-4-methyl-pentanoic acid [2-(4-benzyloxy-phenyl)-1-tert-butylcarbamoyl-ethyl]-amide], on N-type Ca^2+ Channel (setting [1]), the IC50 was 2200 nM. Besides, the “DBA/2 mice % Protection dose @ 30 mg/kg” value in the assay with DBA/2 mice is given as 40%. Regarding `CC(C)CC(C(=O)NC(Cc1ccc(OCc2ccccc2)cc1)C(=O)NC(C)(C)C)N(C)Cc1ccc(C(C)(C)C)cc1` (stereo not drawn) [Example 13, [S-(R*,R*)]-2-[(4-tert-Butyl-benzyl)-methyl-amino]-4-methyl-pentanoic acid [2-(4-benzyloxy-phenyl)-1-tert-butylcarbamoyl-ethyl]-amide], the IC50 on N-type Ca^2+ Channel (setting [1]) came out at 40 nM. In the assay with DBA/2 mice, the “DBA/2 mice % Protection dose @ 30 mg/kg” value was 60%. Take `CC(C)=CCNC(CC(C)C)C(=O)NC(Cc1ccc(OCc2ccccc2)cc1)C(=O)OC(C)(C)C` (stereo not drawn) [Example 31, [S-(R*,R*)]-3-(4-Benzyloxy-phenyl)-2-[4-methyl-2-(3-methyl-but-2-enylamino)-pentanoylamino]-propionic acid tert-butyl ester]: the IC50 on N-type Ca^2+ Channel (setting [1]) turned out to be 320 nM. Moreover, the “DBA/2 mice % Protection dose @ 30 mg/kg” value in the assay on DBA/2 mice is 100%.

For `CCC(CO)(CO)NC(=O)C(Cc1ccc(OCc2ccccc2)cc1)NC(=O)C(CC(C)C)NC1CCOCC1` (stereo not drawn) [Example 74, [S-(R*,R*)]-4-Methyl-2-(tetrahydro-pyran-4-ylamino)-pentanoic acid [2-(4-benzyloxy-phenyl)-1-(1,1-bis-hydroxymethyl-propylcarbamoyl)-ethyl]-amide], the IC50 on N-type Ca^2+ Channel (setting [1]) was found to be 2600 nM.

With `CC(C)CC(NC1CCOCC1)C(=O)NC(Cc1ccc(OCc2ccccc2)cc1)C(=O)NC(C)(C)C` (stereo not drawn) [Example 78, [S-(R*,R*)]-4-Methyl-2-(tetrahydro-pyran-4-ylamino)-pentanoic acid [2-(4-benzyloxy-phenyl)-1-tert-butylcarbamoyl-ethyl]-amide], the IC50 on N-type Ca^2+ Channel (setting [1]) turned out to be 1600 nM.

With `CC(C)CC(C(=O)NC(Cc1ccc(OCc2ccccc2)cc1)C(=O)NC(C)(C)C)N(C)Cc1ccc(F)cc1` (stereo not drawn) [Example 80, [S-(R*,R*)]-2-[(4-Fluoro-benzyl)-methyl-amino]-4-methyl-pentanoic acid [2-(4-benzyloxy-phenyl)-1-tert-butylcarbamoyl-ethyl]-amide], the IC50 on N-type Ca^2+ Channel (setting [1]) was 300 nM. With `CC(C)CC(NC1CCOCC1)C(=O)NC(Cc1ccc(OCc2ccccc2)cc1)C(=O)OC(C)(C)C` (stereo not drawn) [Example 85, [S-(R*,R*)]-3-(4-Benzyloxy-phenyl)-2-[4-methyl-2-(tetrahydro-pyran-4-ylamino)-pentanoylamino]-propionic acid tert-butyl ester], at N-type Ca^2+ Channel (setting [1]), the IC50 was found to be 320 nM. With `CC(C)CCNC(CC(C)C)C(=O)NC(Cc1ccc(OCc2ccccc2)cc1)C(=O)OC(C)(C)C` (stereo not drawn) [Example 95, [S-(R*,R*)]-3-(4-Benzyloxy-phenyl)2-[4-methyl-2-(3-methyl-butylamino)-pentanoylamino]-propionic acid tert-butyl ester], the IC50 at N-type Ca^2+ Channel (setting [1]) was determined as 460 nM. In the case of `CC(C)CCN(C)CC(=O)NC(Cc1ccc(OCc2ccccc2)cc1)C(=O)NC(C)(C)C` (stereo not drawn) [Example 102, [S-(R*,R*)]-3-(4-Benzyloxy-phenyl)-N-tert-butyl-2-{2-[methyl-(3-methyl-butyl)-amino]-acetylamino}-propionamide], the IC50 on N-type Ca^2+ Channel (setting [1]) was determined as 1600 nM. On the same count and under the same terms, the same measure for `CC(C)CCNC(C)(C)C(=O)N[C@@H](Cc1ccc(OCc2ccccc2)cc1)C(=O)NC(C)(C)C` [Example 104, (S)-N-[2-(4-Benzyloxy-phenyl)-1-tert-butylcarbamoyl-ethyl]-2-(3-methyl-butylamino)-isobutyramide]: 1300 nM.

Regarding `CC(C)CC(C(=O)NC(Cc1ccc(OCc2ccccc2)cc1)C(=O)NCCN1CCOCC1)N1CCOCC1` (stereo not drawn) [Example 119, [S-(R*,R*)]-4-Methyl-2-morpholin-4-yl-pentanoic acid [2-(4-benzyloxy-phenyl)-1-(2-morpholin-4-yl-ethylcarbamoyl)-ethyl]-amide], the IC50 on N-type Ca^2+ Channel (setting [2]) came out at 18000 nM. Take `CC(C)CC(C(=O)NC(Cc1ccc(OCc2ccccc2)cc1)C(=O)NCCCn1ccnc1)N1CCOCC1` (stereo not drawn) [Example 121, [S-(R*,R*)]-4-Methyl-2-morpholin-4-yl-pentanoic acid [2-(4-benzyloxy-phenyl)-1-(3-imidazol-1-yl-propylcarbamoyl)-ethyl]-amide]: at N-type Ca^2+ Channel (setting [2]), the IC50 amounted to 14000 nM.

On to `CC(C)CC(C(=O)NC(Cc1ccc(OCc2ccccc2)cc1)C(=O)NCCNCCO)N(C)C` (stereo not drawn) [Example 140, [S-(R*,R*)]-2-Dimethylamino-4-methyl-pentanoic acid {2-(4-benzyloxy-phenyl)-1-[2-(2-hydroxy-ethylamino)-ethylcarbamoyl]-ethyl}-amide], for which the IC50 on N-type Ca^2+ Channel (setting [2]) was 5100 nM.

Turning to “[S-(R*,R*)]-2-Dimethylamino-4-methyl-pentanoic acid [2-(4-benzyloxy-phenyl)-1-(2-hydroxymethylbutan-1-ol)-ethyl]-amide [Example 137]”, the IC50 at N-type Ca^2+ Channel (setting [2]) worked out at 6200 nM. Take “[S-(R*,R*)]-3-Methyl-2-[methyl-(3-methyl-butyl)-amino]-pentanoic acid [2-(4-benzyloxy-phenyl)-1-tert-butylcarbamoyl-ethyl]-amide [Example 44]”: at N-type Ca^2+ Channel, the “IMR 32 % of Blockade @ 0.3 μM” value came to 35% and the “IMR 32 % of Blockade @ 3 μM” value is 74%. As to “[S-(R*,R*)]-4-Methyl-2-(tetrahydropyran-4-yl-amino)-pentanoic acid [2-(4-benzyloxy-phenyl)-1-(2-pyrrolidine-1-yl-ethylcarbamoyl]-amide [Example 130]”, the IC50 on N-type Ca^2+ Channel (setting [2]) was 6500 nM. Turning to “[S-(R*,R*)]-4-Methyl-2-(tetrahydropyran-4-yl-amino)-pentanoic acid [2-(4-benzyloxy-phenyl)-1-(4-hydroxy-piperinylcarbamoyl]-amide [Example 131]”, at N-type Ca^2+ Channel (setting [2]), the IC50 amounted to 10000 nM. Still for that read-out and setting: next, “[S-(R*,R*)]-4-Methyl-2-(tetrahydropyran-4-yl-amino)-pentanoic acid [2-(4-benzyloxy-phenyl)-1-(-(2-pyridin-2-yl-ethylcarbamoyl)-ethyl]-amide [Example 128]”: 3900 nM.
